Results on eleven molecules are retold here after ChEMBL document CHEMBL1149441, “Cyclopropylamino acid amide as a pharmacophoric replacement for 2,3-diaminopyridine. Application to the design of novel bradykinin B1 receptor antagonists” (J Med Chem, 2006).

One data set has as its target T1, B2 bradykinin receptor (Homo sapiens, UniProt P30411).
T1 sequence (P30411 whole entry): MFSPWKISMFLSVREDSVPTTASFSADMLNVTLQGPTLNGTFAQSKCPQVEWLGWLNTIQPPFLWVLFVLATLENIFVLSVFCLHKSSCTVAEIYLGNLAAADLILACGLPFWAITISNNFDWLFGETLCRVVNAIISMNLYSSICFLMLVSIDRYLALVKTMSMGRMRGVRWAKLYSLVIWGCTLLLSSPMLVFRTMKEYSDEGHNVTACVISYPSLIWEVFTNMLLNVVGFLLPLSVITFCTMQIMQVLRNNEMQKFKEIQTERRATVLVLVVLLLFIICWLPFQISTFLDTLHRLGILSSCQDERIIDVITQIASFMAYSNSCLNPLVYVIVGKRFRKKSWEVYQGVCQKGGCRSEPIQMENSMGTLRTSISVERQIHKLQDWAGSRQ
The experiment in a line: Binding affinity to bradykinin B2 receptor.

Data set [1] in a line: Half life in iv dosed rat. The format is ADME, organism-based. As to conditions: in vivo.
A further data set deals with T2, B1 bradykinin receptor (Homo sapiens, UniProt P46663).
T2 sequence (P46663 whole entry): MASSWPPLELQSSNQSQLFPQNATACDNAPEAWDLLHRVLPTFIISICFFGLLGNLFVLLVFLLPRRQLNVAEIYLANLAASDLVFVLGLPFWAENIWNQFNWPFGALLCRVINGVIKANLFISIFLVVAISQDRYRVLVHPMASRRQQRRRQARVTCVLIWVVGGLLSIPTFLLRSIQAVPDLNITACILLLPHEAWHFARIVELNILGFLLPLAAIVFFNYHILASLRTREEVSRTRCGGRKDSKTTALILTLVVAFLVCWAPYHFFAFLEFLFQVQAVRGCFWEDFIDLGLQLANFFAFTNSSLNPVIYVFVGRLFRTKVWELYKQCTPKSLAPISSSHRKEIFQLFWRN
The experiment in a line: Binding affinity to human bradykinin B1 receptor expressed in CHO cells. The format is cell-based.

The nature of data set [2]: Oral bioavailability in rat. The class given is ADME, organism-based. Conditions: in vivo.
A short description of data set [3]: Clearance in iv dosed rat. The class given is ADME, organism-based. As to conditions: in vivo.

At B2 bradykinin receptor, `COC(=O)c1ccccc1-c1ccc(CNc2ncccc2NC(=O)CC(F)(F)F)cc1` yielded a Ki of over 10 µM. This molecule also had a half-life in data set [1] of 0.15 h.

Consider `COC(=O)c1ccccc1-c1ccc(CNC(=O)C2(NC(=O)CC(F)(F)F)CCC2)cc1`, for which the values for the Ki on B1 bradykinin receptor and on B2 bradykinin receptor were 0.119 µM and over 10 µM, respectively.

As for `COC(=O)c1ccccc1-c1ccc(CNC(=O)C2(NC(=O)CC(F)(F)F)CCCC2)cc1`, the figures for the Ki at B1 bradykinin receptor and at B2 bradykinin receptor were 0.462 µM and over 10 µM, respectively.

With `COC(=O)c1ccccc1-c1ccc(CNC(=O)C2(NC(=O)CC(F)(F)F)CC2)cc1`, at B2 bradykinin receptor, the Ki is over 10 µM. Moreover, in data set [2], the bioavailability amounted to 26%. The molecule also gave a half-life in data set [1] of 9.5 h. In data set [3], this molecule had a clearance of 9.3 mL/min/kg.

For `COC(=O)c1ccccc1-c1ccc(CNC(=O)CNC(=O)CC(F)(F)F)cc1`, the Ki at B1 bradykinin receptor was 52 µM; on B2 bradykinin receptor, over 10 µM.

Take `COC(=O)c1ccccc1-c1ccc(CNC(=O)C2(NC(=O)c3cncnc3)CC2)cc1`: the results for the Ki at B1 bradykinin receptor and at B2 bradykinin receptor were 0.0255 µM and over 10 µM, respectively.

Molecule `COC(=O)c1ccccc1-c1ccc(CNC(=O)C(C)(C)NC(=O)CC(F)(F)F)cc1` had a Ki on B2 bradykinin receptor of over 10 µM. The molecule further registered a bioavailability in data set [2] of 35%. This molecule had a half-life in data set [1] of 6.6 h. The clearance in data set [3] was determined as 4.2 mL/min/kg.

As for `COC(=O)c1ccccc1-c1ccc(CNC(=O)C2(NC(=O)c3cncc(C(F)(F)F)c3)CC2)cc1`, the Ki on B1 bradykinin receptor was 0.0018 µM; at B2 bradykinin receptor it was over 10 µM.

As to `COC(=O)c1ccccc1-c1ccc(CNC(=O)[C@@H](C)NC(=O)CC(F)(F)F)cc1`, the results for the Ki on B1 bradykinin receptor and at B2 bradykinin receptor were 1.58 µM and over 10 µM, respectively.

As to `COC(=O)c1ccccc1-c1ccc(CNC(=O)C2(NC(=O)CC(F)(F)F)CCCCC2)cc1`, the inhibition constant (Ki) at B1 bradykinin receptor is 0.752 µM; at B2 bradykinin receptor, over 10 µM. Also, the bioavailability in data set [2] was 25%. The molecule also had a half-life in data set [1] of 12 h. In data set [3], the clearance turned out to be 2.6 mL/min/kg.

Turning to `COC(=O)c1ccccc1-c1ccc(CNC(=O)[C@H](C)NC(=O)CC(F)(F)F)cc1`, the Ki at B1 bradykinin receptor was over 50 µM; at B2 bradykinin receptor it was over 10 µM.
